Publication PMC5010932 (Molecular cancer therapeutics, 2016)

Target: NAMPT (Homo sapiens, UniProt P43490)
Test: cell-free coupled-enzyme colorimetric assay with recombinant NAMPT
Format: biochemical

NAMPT, sequence (P43490 whole entry): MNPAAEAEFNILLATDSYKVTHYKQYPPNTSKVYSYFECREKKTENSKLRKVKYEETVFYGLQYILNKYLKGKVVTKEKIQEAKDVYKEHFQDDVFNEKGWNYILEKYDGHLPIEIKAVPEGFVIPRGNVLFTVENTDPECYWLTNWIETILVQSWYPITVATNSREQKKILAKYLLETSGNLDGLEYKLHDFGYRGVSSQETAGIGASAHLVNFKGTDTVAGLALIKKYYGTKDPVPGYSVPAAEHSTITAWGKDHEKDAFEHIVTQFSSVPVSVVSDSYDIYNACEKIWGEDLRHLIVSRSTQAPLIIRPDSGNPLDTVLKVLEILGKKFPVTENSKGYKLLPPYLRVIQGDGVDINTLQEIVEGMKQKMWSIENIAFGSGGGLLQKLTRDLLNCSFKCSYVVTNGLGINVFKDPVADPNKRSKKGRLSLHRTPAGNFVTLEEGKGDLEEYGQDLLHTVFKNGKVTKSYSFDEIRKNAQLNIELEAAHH

Nc1ccc(/C=C/C(=O)NCc2cc3cc(-c4ccc(C(=O)N5CCC(F)(F)CC5)cc4)cc(-c4ccc(F)cc4)c3o2)cn1 [KPT-9274]
IC50: ~120 nM
